MIC and melting point data for 30 compounds are collected here from patent US8865734B2 (priority 2010, dated 2014).

≈ marks a conversion by molar mass, not a printed value.

Data set [1] relates to in vitro grown Mycobacteria (M. tuberculosis). The experiment in a line: QUM: Quantification of in vitro grown Mycobacteria (in vitro growth fluorescence assay). To be noted: Mycobacterium tuberculosis; MIC, 80% bacterial growth inhibition; in vitro growth; read-out: QUM. Type of data set: cell-based. The gist of the method:
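Mycobacterium tuberculosis grown in vitro was quantified by fluorescence across compound dose responses. MIC is defined as the minimum concentration producing 80% growth inhibition.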

Take `CCc1nc2ccc(Cl)cn2c1-c1nc(Cc2ccc(Oc3ccc(F)cc3)cc2)no1` [Compound 245, 5-(6-Chloro-2-ethylimidazo[1,2-a]pyridin-3-yl)-3-(4-(4-fluorophenoxy)benzyl)-1,2,4-oxadiazole]: the melting point was 129.9 °C. The MIC in data set [1] fell in the range of 1 to 20 µM (≈ 0.449 to 8.98 µg/mL).
For `CCNC(=O)c1c(CC)nc2ccc(Cl)cn12` [Compound 246, 6-Chloro-N,2-diethylimidazo[1,2-a]pyridine-3-carboxamide] the same measures were 176.7 °C and greater than 20 µM.
For `CCc1nc2ccc(Cl)cn2c1C(=O)NCC(C)C` [Compound 247, 6-Chloro-2-ethyl-N-isobutylimidazo[1,2-a]pyridine-3-carboxamide] the same measures were 162.2 °C and greater than 20 µM.
Take `CCc1nc2cc(Cl)ccn2c1C(=O)NCc1cccc(-c2ccc(OC(F)(F)F)cc2)c1` [Compound 248, 7-Chloro-2-ethyl-N-((4′-(trifluoromethoxy)biphenyl-3-yl)methyl)imidazo[1,2-a]pyridine-3-carboxamide]: the melting point was determined as 192.6 °C. Moreover, the MIC in data set [1] was less than 1 µM.
For `CCc1nc2ccc(F)cn2c1C(=O)NCc1ccc(Oc2ccc(OC(F)(F)F)cc2)cc1` [Compound 253, 2-Ethyl-6-fluoro-N-(4-(4-(trifluoromethoxy)phenoxy)benzyl)imidazo[1,2-a]pyridine-3-carboxamide], in that order: 133.4 °C and less than 1 µM.
For `CCc1nc2ccc(Br)cn2c1C(=O)NCc1ccc(Oc2ccc(OC(F)(F)F)cc2)cc1` [Compound 254, 6-Bromo-2-ethyl-N-(4-(4-(trifluoromethoxy)phenoxy)benzyl)imidazo[1,2-a]pyridine-3-carboxamide] the same measures were 152.9 °C and less than 1 µM.
Compound `CCc1nc2cc(C)ccn2c1C(=O)NCc1ccc(Oc2ccc(OC(F)(F)F)cc2)cc1` [Compound 256, 2-Ethyl-7-methyl-N-(4-(4-(trifluoromethoxy)phenoxy)benzyl)imidazo[1,2-a]pyridine-3-carboxamide] showed a melting point of 133.6 °C. For the same compound, in data set [1], the MIC was less than 1 µM.
For `CCc1nc2c(F)cccn2c1C(=O)NCc1ccc(Oc2ccc(OC(F)(F)F)cc2)cc1` [Compound 257, 2-Ethyl-8-fluoro-N-(4-(4-(trifluoromethoxy)phenoxy)benzyl)imidazo[1,2-a]pyridine-3-carboxamide] the same measures were 105.6 °C and less than 1 µM.
On to `CCc1nc2ccc(Br)cn2c1C(=O)NCc1ccc(OCc2ccc(OC(F)(F)F)cc2)cc1` [Compound 259, 6-Bromo-2-ethyl-N-(4-(4-(trifluoromethoxy)benzyloxy)benzyl)imidazo[1,2-a]pyridine-3-carboxamide], for which the melting point came out at 189.7 °C. Further, in data set [1], the MIC was less than 1 µM.
For `CCc1nc2ccccn2c1C(=O)NCc1ccc(OCc2ccc(OC(F)(F)F)cc2)cc1` [Compound 260, 2-Ethyl-N-(4-(4-(trifluoromethoxy)benzyloxy)benzyl)imidazo[1,2-a]pyridine-3-carboxamide] the same measures were 138.7 °C and less than 1 µM.
Regarding `CCc1nc2cc(Cl)ccn2c1C(=O)NCc1ccc(N2CCN3CCCC3C2)cc1` (stereo not drawn) [Compound 265, 7-Chloro-2-ethyl-N-(4-(hexahydropyrrolo[1,2-a]pyrazin-2(1H)-yl)benzyl)imidazo[1,2-a]pyridine-3-carboxamide], the melting point is 159.1 °C. In data set [1], the MIC is greater than 20 µM.
On to `CCc1nc2ccc(Cl)cn2c1C(=O)NCc1ccc(N2CCN3CCCC3C2)cc1` (stereo not drawn) [Compound 266, 6-Chloro-2-ethyl-N-(4-(hexahydropyrrolo[1,2-a]pyrazin-2(1H)-yl)benzyl)imidazo[1,2-a]pyridine-3-carboxamide], for which the melting point worked out at 163 °C. Besides, in data set [1], the MIC is greater than 20 µM.
For `CCc1nc2cc(Cl)ccn2c1C(=O)NCc1ccc(N2CCC3CCCCC3C2)cc1` (stereo not drawn) [Compound 268, 7-Chloro-2-ethyl-N-(4-(octahydroisoquinolin-2(1H)-yl)benzyl)imidazo[1,2-a]pyridine-3-carboxamide], in that order: 174.2 °C and less than 1 µM.
With `C=C1CCN(c2ccc(CNC(=O)c3c(CC)nc4cc(Cl)ccn34)cc2)CC1` [Compound 271, 7-Chloro-2-ethyl-N-(4-(4-methylenepiperidin-1-yl)benzyl)imidazo[1,2-a]pyridine-3-carboxamide], the melting point stood at 168.3 °C. Also, the MIC in data set [1] is less than 1 µM.
For `CCc1nc2cc(Cl)ccn2c1C(=O)NCc1ccc(N2CCC(C)(C)CC2)cc1` [Compound 274], in that order: 121.3 °C and less than 1 µM.
`CCc1nc2ccc(Cl)cn2c1C(=O)NCc1ccc(N2CCC(C(F)(F)F)CC2)cc1` [Compound 275, 6-Chloro-2-ethyl-N-(4-(4-(trifluoromethyl)piperidin-1-yl)benzyl)imidazo[1,2-a]pyridine-3-carboxamide] returned a melting point of 197.9 °C. Also, the MIC in data set [1] is 1 to 20 µM (≈ 0.465 to 9.3 µg/mL).
For `CCc1nc2cc(Cl)ccn2c1C(=O)NCc1ccc(N2CCC(C(F)(F)F)CC2)cc1` [Compound 276, 7-Chloro-2-ethyl-N-(4-(4-(trifluoromethyl)piperidin-1-yl)benzyl)imidazo[1,2-a]pyridine-3-carboxamide] the same measures were 209.4 °C and greater than 20 µM.
With `CCc1nc2ccc(Cl)cn2c1C(=O)NCc1ccc(N2CCC(F)(F)CC2)cc1` [Compound 277, 6-chloro-N-(4-(4,4-difluoropiperidin-1-yl)benzyl)-2-ethylimidazo[1,2-a]pyridine-3-carboxamide], the melting point worked out at 194.2 °C. Further, the MIC in data set [1] lay within 1 to 20 µM (≈ 0.433 to 8.66 µg/mL).
For `CCc1nc2cc(Cl)ccn2c1C(=O)NCc1ccc(N2CCC(F)(F)CC2)cc1` [Compound 278, 7-Chloro-N-(4-(4,4-difluoropiperidin-1-yl)benzyl)-2-ethylimidazo[1,2-a]pyridine-3-carboxamide] the same measures were 166.3 °C and 1 to 20 µM (≈ 0.433 to 8.66 µg/mL).
As to `CCc1nc2ccc(Cl)cn2c1C(=O)NCc1ccc(N2CCC(CO)CC2)cc1` [Compound 279, 6-Chloro-2-ethyl-N-(4-(4-(hydroxymethyl)piperidin-1-yl)benzyl)imidazo[1,2-a]pyridine-3-carboxamide], the melting point was 161.1 °C. Moreover, the MIC in data set [1] was greater than 20 µM.
Compound `CCc1nc2cc(Cl)ccn2c1C(=O)NCc1ccc(N2CCC(c3ccccc3)CC2)cc1` [Compound 283, 7-Chloro-2-ethyl-N-(4-(4-phenylpiperidin-1-yl)benzyl)imidazo[1,2-a]pyridine-3-carboxamide] yielded a melting point of 164.5 °C. Besides, the MIC in data set [1] was less than 1 µM.
For `CCc1nc2ccc(Cl)cn2c1C(=O)NCc1ccc(N2CCC(c3ccccc3)CC2)cc1` [Compound 284, 6-Chloro-2-ethyl-N-(4-(4-phenylpiperidin-1-yl)benzyl)imidazo[1,2-a]pyridine-3-carboxamide] the same measures were 138.2 °C and less than 1 µM.
Turning to `CCc1nc2ccccn2c1C(=O)NCc1ccc(N2CCC(c3ccc(OC(F)(F)F)cc3)CC2)cc1` [Compound 288, 2-Ethyl-N-(4-(4-(4-(trifluoromethoxy)phenyl)piperidin-1-yl)benzyl)imidazo[1,2-a]pyridine-3-carboxamide], the melting point was found to be 146 °C. The MIC in data set [1] was less than 1 µM.
For `CCc1nc2cc(Cl)ccn2c1C(=O)NCc1ccc(N2CCC(Cc3ccccc3)CC2)cc1` [Compound 294, N-(4-(4-Benzylpiperidin-1-yl)benzyl)-7-chloro-2-ethylimidazo[1,2-a]pyridine-3-carboxamide] the same measures were 63.8 °C and 1 to 20 µM (≈ 0.487 to 9.74 µg/mL).
On to `CCc1nc2ccc(Cl)cn2c1C(=O)NCc1ccc(N2CCC(COc3ccc(OC(F)(F)F)cc3)CC2)cc1` [Compound 298, 6-chloro-2-ethyl-N-(4-(4-((4-(trifluoromethoxy)phenoxy)methyl)piperidin-1-yl)benzyl)imidazo[1,2-a]pyridine-3-carboxamide], for which the melting point turned out to be 183.6 °C. Further, the MIC in data set [1] is less than 1 µM.
`CCc1nc2cc(Cl)ccn2c1C(=O)NCc1ccc(N2CCC(COc3ccc(OC(F)(F)F)cc3)CC2)cc1` [Compound 299, 7-Chloro-2-ethyl-N-(4-(4-((4-(trifluoromethoxy)phenoxy)methyl)piperidin-1-yl)benzyl)imidazo[1,2-a]pyridine-3-carboxamide] gave a melting point of 189.5 °C. In data set [1], the MIC was less than 1 µM.
For `CCc1nc2c(OC(F)F)cccn2c1C(=O)NCc1ccc(N2CCN(c3ccc(F)cc3)CC2)cc1` [Compound 304, 8-(Difluoromethoxy)-2-ethyl-N-(4-(4-(4-fluorophenyl)piperazin-1-yl)benzyl)imidazo[1,2-a]pyridine-3-carboxamide] the same measures were 186.3 °C and less than 1 µM.
For `CCc1nc2ccc(C)cn2c1C(=O)NCc1ccc(N2CCN(c3ccc(F)cc3)CC2)cc1` [Compound 308, 2-Ethyl-N-(4-(4-(4-fluorophenyl)piperazin-1-yl)benzyl)-6-methylimidazo[1,2-a]pyridine-3-carboxamide] the same measures were 187.6 °C and less than 1 µM.
For `CCc1nc2c(OC(F)F)cccn2c1C(=O)NCc1ccc(N2CCOCC2)cc1` [Compound 319, 8-(Difluoromethoxy)-2-ethyl-N-(4-morpholinobenzyl)imidazo[1,2-a]pyridine-3-carboxamide] the same measures were 163 °C and 1 to 20 µM (≈ 0.43 to 8.61 µg/mL).
Consider `CCc1nc2ccc(C(F)(F)F)cn2c1C(=O)NCc1ccc(N2CCOCC2)cc1` [Compound 321, 2-Ethyl-N-(4-morpholinobenzyl)-6-(trifluoromethyl)imidazo[1,2-a]pyridine-3-carboxamide], for which the melting point stood at 207.6 °C. The MIC in data set [1] is less than 1 µM.
